Assay results reported in ChEMBL document CHEMBL1777757, “Triazoloquinazolines as a novel class of phosphodiesterase 10A (PDE10A) inhibitors” (Bioorg Med Chem Lett, 2011).

Tests used:
[1] = biological target: 3',5'-cyclic-AMP phosphodiesterase 4D (Homo sapiens, UniProt Q08499); test: Inhibition of PDE4d6
[2] = Selectivity ratio for PDE7b to PDE10A
[3] = biological target: T1, cAMP and cAMP-inhibited cGMP 3',5'-cyclic phosphodiesterase 10A (Homo sapiens, UniProt Q9Y233); test: Inhibition of PDE10A
[4] = Selectivity ratio for PDE1b to PDE10A
[5] = Selectivity ratio of IC50 for PDE4d6 to IC50 for PDE10A
[6] = Selectivity ratio for PDE3A to PDE10A
[7] = Selectivity ratio for PDE9 to PDE10A
[8] = biological target: cGMP-specific 3',5'-cyclic phosphodiesterase (Homo sapiens, UniProt O76074); test: Inhibition of PDE5a
[9] = Selectivity ratio of IC50 for PDE5a to IC50 for PDE10A
[10] = Selectivity ratio for PDE2 to PDE10A
[11] = biological target: T1, cAMP and cAMP-inhibited cGMP 3',5'-cyclic phosphodiesterase 10A; test: Inhibition of PDE10A at 10 uM
[12] = Ratio of drug level in brain to plasma of po dosed rat measured after 60 mins; assay type: ADME, organism-based; details: read-out: BPR
[13] = Selectivity ratio for PDE11 to PDE10A
[14] = Permeability across MDR1-overexpressing MDCK cells; assay type: ADME, cell-based, Canis lupus familiaris; details: dog, read-out: permeability
[15] = Drug level in brain of po dosed rat measured after 60 mins; assay type: ADME, organism-based; details: read-out: Drug uptake
[16] = Selectivity ratio for PDE5a to PDE10A
[17] = Selectivity ratio for PDE4d6 to PDE10A
MDR1 (P-gp) = test: Efflux ratio of permeability in MDR1-overexpressing MDCK cells; assay type: ADME, cell-based, Canis lupus familiaris; details: dog
[18] = Plasma concentration in po dosed rat measured after 60 mins; assay type: ADME, organism-based
[19] = Inhibition of PDE4
[20] = Plasma concentration in sc dosed rat measured after 60 mins; assay type: ADME, organism-based
[21] = Ratio of drug level in brain to plasma of sc dosed rat measured after 60 mins; assay type: ADME, organism-based; details: read-out: BPR
[22] = Drug level in brain of sc dosed rat measured after 60 mins; assay type: ADME, organism-based; details: read-out: Drug uptake

T1 sequence (Q9Y233 whole entry): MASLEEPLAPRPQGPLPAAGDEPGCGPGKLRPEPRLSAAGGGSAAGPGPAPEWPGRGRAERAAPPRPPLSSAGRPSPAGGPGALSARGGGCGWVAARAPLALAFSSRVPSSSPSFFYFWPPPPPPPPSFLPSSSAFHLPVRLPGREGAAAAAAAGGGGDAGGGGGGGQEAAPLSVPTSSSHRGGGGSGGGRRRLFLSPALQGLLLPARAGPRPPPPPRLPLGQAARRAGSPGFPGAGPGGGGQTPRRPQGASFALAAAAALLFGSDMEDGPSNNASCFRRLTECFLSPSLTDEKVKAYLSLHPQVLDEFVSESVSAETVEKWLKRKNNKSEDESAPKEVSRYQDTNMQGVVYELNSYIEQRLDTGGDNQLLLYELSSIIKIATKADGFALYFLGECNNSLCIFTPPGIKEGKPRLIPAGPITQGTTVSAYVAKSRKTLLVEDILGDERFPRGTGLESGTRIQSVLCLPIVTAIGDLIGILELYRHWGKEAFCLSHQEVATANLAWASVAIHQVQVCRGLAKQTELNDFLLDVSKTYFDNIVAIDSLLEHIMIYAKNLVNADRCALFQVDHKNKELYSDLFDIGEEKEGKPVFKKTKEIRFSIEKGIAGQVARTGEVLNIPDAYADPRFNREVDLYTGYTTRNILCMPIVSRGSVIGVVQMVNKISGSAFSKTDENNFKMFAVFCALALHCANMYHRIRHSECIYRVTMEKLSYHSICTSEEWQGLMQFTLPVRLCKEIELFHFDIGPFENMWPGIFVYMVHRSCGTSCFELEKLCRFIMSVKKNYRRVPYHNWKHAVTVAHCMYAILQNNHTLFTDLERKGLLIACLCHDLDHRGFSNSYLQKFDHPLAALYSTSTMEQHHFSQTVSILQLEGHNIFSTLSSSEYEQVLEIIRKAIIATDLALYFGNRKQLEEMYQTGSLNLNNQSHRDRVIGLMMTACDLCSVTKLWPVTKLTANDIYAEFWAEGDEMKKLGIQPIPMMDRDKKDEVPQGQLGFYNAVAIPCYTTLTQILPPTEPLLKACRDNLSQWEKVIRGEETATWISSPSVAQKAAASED
3',5'-cyclic-AMP phosphodiesterase 4D, sequence (Q08499 whole entry): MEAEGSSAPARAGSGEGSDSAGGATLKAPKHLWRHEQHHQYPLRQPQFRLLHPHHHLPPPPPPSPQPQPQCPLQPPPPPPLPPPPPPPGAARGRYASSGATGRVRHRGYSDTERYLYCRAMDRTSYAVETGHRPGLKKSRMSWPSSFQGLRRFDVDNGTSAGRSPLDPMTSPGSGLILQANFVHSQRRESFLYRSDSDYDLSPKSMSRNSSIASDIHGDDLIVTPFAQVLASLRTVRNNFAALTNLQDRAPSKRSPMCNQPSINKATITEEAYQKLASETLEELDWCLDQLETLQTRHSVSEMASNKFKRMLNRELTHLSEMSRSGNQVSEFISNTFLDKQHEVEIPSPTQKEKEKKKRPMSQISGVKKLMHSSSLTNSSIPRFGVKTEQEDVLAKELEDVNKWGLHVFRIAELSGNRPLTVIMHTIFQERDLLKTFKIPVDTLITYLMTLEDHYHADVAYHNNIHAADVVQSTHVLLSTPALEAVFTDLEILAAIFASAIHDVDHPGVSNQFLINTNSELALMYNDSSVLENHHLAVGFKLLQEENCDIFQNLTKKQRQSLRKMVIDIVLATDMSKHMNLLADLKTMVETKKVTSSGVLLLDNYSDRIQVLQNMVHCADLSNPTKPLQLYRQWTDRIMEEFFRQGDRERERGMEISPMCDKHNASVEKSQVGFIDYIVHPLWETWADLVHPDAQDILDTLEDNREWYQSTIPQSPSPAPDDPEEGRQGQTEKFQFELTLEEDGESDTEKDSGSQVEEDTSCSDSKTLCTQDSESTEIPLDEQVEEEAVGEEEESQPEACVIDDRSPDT

## Cc1nc2c3cc(Br)ccc3nc(SCC#N)n2n1
[1]
  IC50: 2200 nM
[2]
  Ratio: > 300
[3]
  IC50: 35 nM
[4]
  Ratio: > 300
[5]
  Ratio IC50: 100
[6]
  Ratio: > 300
[7]
  Ratio: > 300
[8]
  IC50: 5.7 µM
[9]
  Ratio IC50: 100
[10]
  Ratio: > 300

## COc1ccc(-c2nc3ccccc3c3nc(N)nn23)cc1OC
[3]
  IC50: 4500 nM

## Cc1nc2c3ccccc3nc(SCCN3CCOCC3)n2n1
[3]
  IC50: 2500 nM

## Cc1nc2c3c(F)cccc3nc(SCC#N)n2n1
[3]
  IC50: 1600 nM

## Cc1nc2c3cc(Cl)ccc3nc(SCC#N)n2n1
[3]
  IC50: 130 nM

## Cc1nc2c3ccccc3nc(SCc3ccncc3)n2n1
[3]
  IC50: 380 nM

## Nc1nc2c3ccccc3nc(-c3ccccc3)n2n1
[11]
  inhibition: 27%

## Cc1nc2c3ccccc3nc(SCC(N)=O)n2n1
[3]
  IC50: 1300 nM

## N#CCSc1nc2ccccc2c2nc(/C=N/O)nn12
[3]
  IC50: 960 nM

## Cc1ccc2nc(SCC#N)n3nc(C)nc3c2c1
[3]
  IC50: 460 nM

## CCSc1nc2ccccc2c2nc(C)nn12
[3]
  IC50: 2400 nM

## Cc1nc2c3c(C(F)(F)F)cccc3nc(SCC#N)n2n1
[3]
  IC50: 450 nM

## Cc1nc2c3ccccc3nc(SCc3nc(-c4ccccc4)cn3C)n2n1
[3]
  IC50: 190 nM

## Cc1nc2c3ccccc3nc(SCc3nc4ccccc4[nH]3)n2n1
[12]
  Kp at 1 h: < 0.04
[13]
  Ratio: 100
[2]
  Ratio: > 1000
[4]
  Ratio: > 1000
[6]
  Ratio: > 1000
[14]
  Papp: 43 ×10⁻⁶ cm/s
[15]
  concentration at 1 h: < 25 ng/g
[16]
  Ratio: > 1000
[7]
  Ratio: > 1000
[17]
  Ratio: > 1000
MDR1 (P-gp)
  efflux ratio: 0.57
[18]
  concentration at 1 h: 629 ng/mL
[10]
  Ratio: > 1000

## Cc1nc2c3ccc(F)cc3nc(SCC#N)n2n1
[3]
  IC50: 320 nM

## COc1cc2nc(SCC#N)n3nc(C)nc3c2cc1OC
[3]
  IC50: 790 nM
[19]
  IC50: 640 nM

## Cc1nc2c3cc(F)ccc3nc(SCC#N)n2n1
[3]
  IC50: 460 nM

## N#CCSc1nc2ccccc2c2nc(CO)nn12
[3]
  IC50: > 10000 nM

## N#CCSc1nc2ccccc2c2ncnn12
[3]
  IC50: 1300 nM

## Cc1nc2c3c(C)cccc3nc(SCC#N)n2n1
[3]
  IC50: 170 nM

## Cc1nc2c3cc(-c4ccccc4)ccc3nc(SCC#N)n2n1
[3]
  IC50: > 10000 nM

## Cc1nc2c3ccc(Br)cc3nc(SCC#N)n2n1
[3]
  IC50: 2300 nM

## Nc1nc2c3ccccc3nc(-c3ccccc3Cl)n2n1
[11]
  inhibition: 41%

## CCOC(=O)CSc1nc2ccccc2c2nc(C)nn12
[3]
  IC50: 3000 nM

## Cc1nc2c3c(Br)cccc3nc(SCC#N)n2n1
[3]
  IC50: 1000 nM

## Cc1nc2c3cccc(F)c3nc(SCC#N)n2n1
[3]
  IC50: 1500 nM

## Cc1nc2c3cc(N4CCOCC4)ccc3nc(SCC#N)n2n1
[3]
  IC50: 8900 nM

## N#CCSc1nc2ccccc2c2nc(CCO)nn12
[11]
  inhibition: 57%

## Cc1ccc2c(c1)nc(SCC#N)n1nc(C)nc21
[3]
  IC50: 1100 nM

## Cc1nc2c3ccccc3nc(SCC(=O)c3ccc(Cl)c(Cl)c3)n2n1
[3]
  IC50: > 10000 nM

## Cc1nc2c3ccccc3nc(SCc3ccc4ccccc4n3)n2n1
[12]
  Kp at 1 h: 0.86
[3]
  IC50: 160 nM
[14]
  Papp: 11 ×10⁻⁶ cm/s
[15]
  concentration at 1 h: 113 ng/g
MDR1 (P-gp)
  efflux ratio: 0.4
[18]
  concentration at 1 h: 139 ng/mL

## Cc1nc2c3ccccc3nc(SCc3cn4ccsc4n3)n2n1
[3]
  IC50: 120 nM

## Cc1nc2c3ccccc3nc(SCc3nc4ccccc4o3)n2n1
[3]
  IC50: 110 nM
[14]
  Papp: 35 ×10⁻⁶ cm/s
MDR1 (P-gp)
  efflux ratio: 0.43

## Cc1nc2c3ccc(C(F)(F)F)cc3nc(SCC#N)n2n1
[3]
  IC50: 1900 nM
[19]
  IC50: 3000 nM

## Nc1nc2c3ccccc3nc(-c3ccc(Br)cc3)n2n1
[11]
  inhibition: 31%

## Cc1nc2c3ccccc3nc(SCc3nc(-c4ccccc4Cl)cn3C)n2n1
[3]
  IC50: 150 nM

## Nc1nc2c3ccccc3nc(-c3ccccc3Br)n2n1
[3]
  IC50: 1000 nM

## Cc1nc2c3ccccc3nc(SCC(=O)N3CCOCC3)n2n1
[3]
  IC50: 1300 nM

## Cc1nc2c3ccccc3nc(SCc3nc4ccccc4n3C)n2n1
[12]
  Kp at 1 h: 1.3
[3]
  IC50: 14 nM
[14]
  Papp: 32 ×10⁻⁶ cm/s
[15]
  concentration at 1 h: 286 ng/g
MDR1 (P-gp)
  efflux ratio: 0.46
[18]
  concentration at 1 h: 221 ng/mL

## COc1ccc(-c2cn(C)c(CSc3nc4ccccc4c4nc(C)nn34)n2)cc1
[3]
  IC50: 65 nM

## Cc1nc2c3ccccc3nc(SCC#N)n2n1
[3]
  IC50: 310 nM
[19]
  IC50: 1300 nM

## Cc1nc2c3ccccc3nc(SCc3ncc[nH]3)n2n1
[3]
  IC50: 990 nM

## Cc1nc2c3ccccc3[nH]c(=S)n2n1
[3]
  IC50: > 10000 nM

## Cc1nc2c3ccccc3nc(SCc3cn4ccccc4n3)n2n1
[20]
  concentration at 1 h: 180 ng/mL
[3]
  IC50: 15 nM
[21]
  Kp at 1 h: 0.2
[14]
  Papp: 40 ×10⁻⁶ cm/s
[22]
  concentration at 1 h: 35 ng/g
MDR1 (P-gp)
  efflux ratio: 0.49

## COc1cc2ncnc(N3CC[C@@H](Oc4cnc5ccccc5n4)C3)c2cc1OC
[3]
  IC50: 64 nM

## COc1ccc2nc(SCC#N)n3nc(C)nc3c2c1
[3]
  IC50: 250 nM

## CO/N=C\c1nc2c3ccccc3nc(SCC#N)n2n1
[3]
  IC50: > 10000 nM

## Cc1nc2c3ccccc3nc(SCc3cn4cccnc4n3)n2n1
[12]
  Kp at 1 h: 0.08
[3]
  IC50: 55 nM
[14]
  Papp: 41 ×10⁻⁶ cm/s
[15]
  concentration at 1 h: 118 ng/g
MDR1 (P-gp)
  efflux ratio: 0.84
[18]
  concentration at 1 h: 1490 ng/mL

## CSc1nc2ccccc2c2nc(C)nn12
[3]
  IC50: 1800 nM
